In this test the target is T1, ERα (Homo sapiens, UniProt P03372).
T1 construct: endogenous in cells; host or cells: MCF-7
T1 sequence (P03372 1-595): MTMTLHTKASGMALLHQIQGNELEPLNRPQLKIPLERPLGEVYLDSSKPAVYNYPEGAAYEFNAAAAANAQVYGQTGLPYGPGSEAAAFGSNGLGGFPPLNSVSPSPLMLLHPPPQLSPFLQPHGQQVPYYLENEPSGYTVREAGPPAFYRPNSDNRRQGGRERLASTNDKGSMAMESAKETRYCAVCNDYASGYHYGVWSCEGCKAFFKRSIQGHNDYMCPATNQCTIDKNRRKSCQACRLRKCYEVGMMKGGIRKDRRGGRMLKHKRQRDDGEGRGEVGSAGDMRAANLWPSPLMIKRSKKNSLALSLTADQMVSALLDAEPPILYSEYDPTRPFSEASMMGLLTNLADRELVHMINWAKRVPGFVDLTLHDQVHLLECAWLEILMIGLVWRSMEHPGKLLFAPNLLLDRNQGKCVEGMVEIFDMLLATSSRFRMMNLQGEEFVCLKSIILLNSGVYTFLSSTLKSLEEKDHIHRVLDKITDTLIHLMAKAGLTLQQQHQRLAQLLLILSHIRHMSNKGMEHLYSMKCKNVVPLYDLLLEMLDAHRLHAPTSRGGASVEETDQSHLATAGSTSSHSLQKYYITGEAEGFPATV
The test is described as follows: MCF-7 ERα degradation experiment (Human Total ERα ELISA, 4 h incubation). It is filed as cell-based. Particulars: MCF-7 cells, 4 h incubation at 37° C., ERα by ELISA; Max well 100 nM FUL, Min well 0.5% DMSO; read-out: Degradation of ERα by compounds DC50. As to the method:
Experimental Example 1: MCF-7 ERα Degradation Experiment
Compounds were tested for their ability to degrade ERα receptors under experimental conditions.
Phenol red-free MEM medium was purchased from Wisent, fetal bovine serum was purchased from Biosera, and Human Total ERα/NR3A1 ELISA kits were purchased from R&D. MCF-7 cell line was purchased from the Cell Bank of Type Culture Collection Committee of the Chinese Academy of Sciences. Nivo5 multi-marker analyzer (PerkinElmer).
• 1. MCF-7 cells were resuspended in medium (phenol red-free MEM+5% Charcoal Dextran Stripped FBS+1% PS), seeded in a 96-well clear cell culture plate, and incubated overnight in a carbon dioxide incubator; • 2. ELISA plate was coated with stripes, Human Total ERα Capture Antibody was diluted with 1×PBS, and the plate was incubated at 25° C. overnight. Day Two: • 1. Cell administration: The compounds to be tested were diluted to the 8th concentration. The concentration of the compound was 20 μM, and the compound was diluted successively to the 8th concentration of 0.256 nM at 4 μM. Two duplicate wells were set. The compound was transferred to the intermediate plate and then to the cell plate to give a final DMSO concentration of 0.5% per well, and the plate was incubated at 37° C. for 4 h; • 2. preparation of standard curve solution: 110 ng/mL of standard curve stock solution was 6-fold diluted with buffer #8 to give a solution with a concentration of 18.3 ng/mL. Then, 8-point gradient dilution was performed using buffer #3 with a final concentration of 200 pg/mL to 1.56 pg/mL; • 3. the ELISA plate was washed 3 times with a washing solution (1×PBS containing 0.05% Tween); • 4. 300 μL of blocking solution (1×PBS containing 1% BSA) was added to each well, and the plate was incubated at 25° C. for 2 h; • 5. 1×PBS was pre-cooled. After the incubation of the compound, the supernatant was removed, the plate was washed with pre-cooled 1×PBS, the cell lysate was added, and the cells were lysed on ice for 15 min; • 6. the blocking solution was removed from the ELISA plate, the plate was washed, and step 3 was repeated; • 7. after the cells were lysed, in the cell plate, the cell lysate was 6-fold diluted with 150 μL of buffer #8 per well, the mixture was pipetted and mixed well, and 100 μL of solution per well was transferred to the ELISA plate; • 8. at the same time, 100 μL of Standard per well was transferred to the ELISA plate and incubated overnight at 25° C. Day Three: • 1. The supernatant was removed, and the plate was washed 3 times with a washing solution; • 2. Human Total ERα Detection Antibody stock solution ([…]) was 36-fold diluted with buffer #1 (1×PBS containing 1% BSA), and the final concentration of Detection Antibody was 400 ng/mL. 100 μL/well of the solution was transferred to the ELISA plate, and the plate was incubated at 25° C. for 2 h; • 3. the plate was washed with buffer #1; • 4. Streptavidin-HRP A was 200-fold diluted with buffer #1 (1×PBS containing 1% BSA), 100 μL/well of the solution was transferred to the ELISA plate, and the plate was incubated at 25° C. for 20 min; • 5. the plate was washed with buffer #1; • 6. 100 μL of Substrate Solution per well (1:1 mixture of reagent A (H2O2) and reagent B (tetramethylbenzidine)) was added to the ELISA plate, and the plate was incubated at 25° C. for 20 min; • 7. […] of stop solution was added and the OD450 absorbance was read on a plate reader. Data Analysis: […]

SMILES strings stand for the structures.

For `O=C1CCC(N2Cc3cc(N4CCN(CC5CCN(c6ccc(C7=C(c8ccccc8)CCCc8cc(O)ccc87)cc6)CC5)CC4)ccc3C2=O)C(=O)N1` (centres unmarked) [Compound 2], the DC50 was 2.69 nM.

For the compound `O=C1CC[C@H](N2Cc3cc(N4CCN(CCC5CCN(c6ccc(C7=C(c8ccccc8)CCCc8cc(C(=O)O)ccc87)cc6)CC5)CC4)ccc3C2=O)C(=O)N1` [Compound 13], the DC50 is 4.47 nM.

In the case of `O=C1CC[C@H](N2Cc3cc(N4CCN(CC5CCN(c6ccc(C7=C(c8ccncc8)CCCc8cc(O)ccc87)cc6)CC5)CC4)ccc3C2=O)C(=O)N1` [Compound 20], the DC50 was 0.9 nM.

With `O=C1CC[C@H](N2Cc3cc(N4CCN(CC5CCN(c6ccc(C7=C(c8ccc(OC(F)F)cc8)CCCc8cc(O)ccc87)cc6)CC5)CC4)ccc3C2=O)C(=O)N1` [Compound 24], the DC50 was determined as 0.7 nM.

As for `COc1ccc2c(c1)CCCC(c1ccccc1)=C2c1ccc(N2CCC(CN3CCN(c4ccc5c(c4)CN([C@H]4CCC(=O)NC4=O)C5=O)CC3)CC2)cc1` [Compound 7], the DC50 came out at 8 nM.

With `O=C1CC[C@H](N2Cc3cc(N4CCN(CC5CCN(c6ccc(C7=C(c8ccc(C9CC9)nc8)CCCc8cc(O)ccc87)cc6)CC5)CC4)ccc3C2=O)C(=O)N1` [Compound 17], the DC50 was found to be 9.4 nM.

`CC(C)(O)c1ccc(C2=C(c3ccc(N4CCC(CN5CCN(c6ccc7c(c6)CN([C@H]6CCC(=O)NC6=O)C7=O)CC5)CC4)cc3)c3ccc(O)cc3CCC2)cn1` [Compound 23]: the 50% degradation concentration (DC50) was 1.4 nM.

Consider `O=C1CC[C@H](N2Cc3cc(N4CCN(CC5CCN(c6ccc(C7=C(c8ccc(C(F)(F)F)nc8)CCCc8cc(O)ccc87)cc6)CC5)CC4)ccc3C2=O)C(=O)N1` [Compound 15], for which the DC50 was determined as 1.7 nM.

For `Cc1ccc(C2=C(c3ccc(N4CCC(CN5CCN(c6ccc7c(c6)CN([C@H]6CCC(=O)NC6=O)C7=O)CC5)CC4)cc3)c3ccc(O)cc3CCC2)cn1` [Compound 16], the DC50 was 7.7 nM.

As to `COc1ccc2c(c1)OCCC(c1ccccc1)=C2c1ccc(N2CCC(CN3CCN(c4ccc5c(c4)CN([C@H]4CCC(=O)NC4=O)C5=O)CC3)CC2)cc1` [Compound 10], the DC50 is 5.7 nM.

`O=C1CCC(N2Cc3cc(N4CCN(CCCCCOc5ccc(C6=C(c7ccccc7)CCCc7cc(O)ccc76)cc5)CC4)ccc3C2=O)C(=O)N1` (centres unmarked) [Compound 1]: the DC50 amounted to 0.84 nM.

For the compound `O=C1CC[C@H](N2Cc3cc(N4CCN(CC5CCN(c6ccc(C7=C(c8ccc(OC(F)(F)F)cc8)CCCc8cc(O)ccc87)cc6)CC5)CC4)ccc3C2=O)C(=O)N1` [Compound 25], the DC50 was determined as 5.7 nM.

Consider `O=C1CC[C@H](N2Cc3cc(N4CCN(CC5CCN(c6ccc(C7=C(c8ccc(F)cc8)CCCc8cc(O)ccc87)cc6)CC5)CC4)ccc3C2=O)C(=O)N1` [Compound 6], for which the DC50 came to 1 nM.

As for `O=C1CC[C@H](N2Cc3cc(N4CCN(CC5CCN(c6ccc(C7=C(c8ccccc8)CCCc8cc(O)ccc87)cc6)CC5)CC4)ccc3C2=O)C(=O)N1` [Compound 14], the DC50 was determined as 1.1 nM.

`O=C1CC[C@H](N2Cc3cc(N4CCN(CCC5CCN(c6ccc(C7=C(c8ccccc8)CCCc8cc(O)ccc87)cc6)CC5)CC4)ccc3C2=O)C(=O)N1` [Compound 4]: the DC50 came out at 1.5 nM.

For `Cc1ccc(C2=C(c3ccc(N4CCC(CN5CCN(c6ccc7c(c6)CN([C@H]6CCC(=O)NC6=O)C7=O)CC5)CC4)cc3)c3ccc(O)cc3CCC2)c(C)n1` [Compound 22], the DC50 is 2.4 nM.

Take `Cc1nn(C)cc1C1=C(c2ccc(N3CCC(CN4CCN(c5ccc6c(c5)CN([C@H]5CCC(=O)NC5=O)C6=O)CC4)CC3)cc2)c2ccc(O)cc2CCC1` [Compound 18]: the DC50 was determined as 4.6 nM.

Regarding `O=C1CC[C@H](N2Cc3cc(N4CCN(CC5CCN(c6ccc(C7=C(c8cccnc8)CCCc8cc(O)ccc87)cc6)CC5)CC4)ccc3C2=O)C(=O)N1` [Compound 21], the DC50 came to 1.9 nM.

As to `O=C1CC[C@H](N2Cc3cc(N4CCN(CC5CCN(c6ccc(C7=C(c8ccc(OC9CC9)cc8)CCCc8cc(O)ccc87)cc6)CC5)CC4)ccc3C2=O)C(=O)N1` [Compound 26], the DC50 is 1.7 nM.

For the compound `O=C1CC[C@H](N2Cc3cc(N4CCN(CC5CCN(c6ccc(C7=C(c8ccc(Cl)cc8)CCCc8cc(O)ccc87)cc6)CC5)CC4)ccc3C2=O)C(=O)N1` [Compound 5], the DC50 amounted to 1.8 nM.

Consider `COc1ccc2c(c1)CCCC(c1ccc(F)cc1)=C2c1ccc(N2CCC(CN3CCN(c4ccc5c(c4)CN([C@H]4CCC(=O)NC4=O)C5=O)CC3)CC2)cc1` [Compound 8], for which the DC50 stood at 8.3 nM.

Turning to `O=C1CCC(N2Cc3cc(N4CCN(CC5CCN(c6ccc(C7=C(c8ccc(Cl)cc8Cl)CCCc8cc(C(=O)O)ccc87)cc6)CC5)CC4)ccc3C2=O)C(=O)N1` (centres unmarked) [Compound 3], the DC50 stood at 5.8 nM.

With `Cc1ccc(C2=C(c3ccc(N4CCC(CN5CCN(c6ccc7c(c6)CN([C@H]6CCC(=O)NC6=O)C7=O)CC5)CC4)cc3)c3ccc(O)cc3CCC2)cc1` [Compound 11], the 50% degradation concentration (DC50) is 1 nM.

Consider `O=C1CC[C@H](N2Cc3cc(N4CCN(CC5CCN(c6ccc(C7=C(c8ccccc8)CCCc8cc(C(=O)O)ccc87)cc6)CC5)CC4)ccc3C2=O)C(=O)N1` [Compound 12], for which the DC50 is 4.73 nM.

Consider `O=C1CC[C@H](N2Cc3cc(N4CCN(CC5CCN(c6ccc(C7=C(c8ccc(F)nc8)CCCc8cc(O)ccc87)cc6)CC5)CC4)ccc3C2=O)C(=O)N1` [Compound 19], for which the DC50 stood at 2.1 nM.

Consider `O=C1CC[C@H](N2Cc3cc(N4CCN(CC5CCN(c6ccc(C7=C(c8ccc(O)cc8)CCCc8cc(O)ccc87)cc6)CC5)CC4)ccc3C2=O)C(=O)N1` [Compound 9], for which the DC50 was found to be 0.4 nM.

These data come from patent publication US12655135B2, “Benzo seven-membered ring bifunctional compound and application thereof” (CHIA TAI TIANQING PHARMACEUTICAL GROUP CO., LTD., priority 2021, dated 2026).
